Experimental data published in article PMC11381307 (Frontiers in Pharmacology, 2024).

Tests used:
[1] = biological target: MRP2 (Homo sapiens, UniProt Q92887); test: biochemical
Method: The substrate study was performed at 37°C with a water bath using a mixture comprising of 10 μL of vesicle membranes (5 mg/mL) and 10 μL of Buffer A2 (replaced with 5 μL Reagent G and 5 μL inhibitors for the inhibitor groups). The mixture was pre-incubated at 37°C with a water bath for 5 min. Meanwhile, 10 μL of dosing solution of the compounds or probe substrates and 10 μL of Reagent C2 (ATP) or D2 (AMP, as the non-ATP dependent control) were mixed and pre-incubated at 37°C for 5 min. Following pre-incubation, the two mixtures were mixed and incubated for an additional 5 min.
After incubation, the reactions were stopped with ice-cold Buffer B, filtered through a 96-well filter plate to separate vesicle-associated ligands from the matrix, and washed five times with ice-cold Buffer B. The vesicles on the filer plate were dissolved using 50 μL of 80% methanol (v/v), and the filtrate was collected by centrifugation at 2000 rpm for 2 min. The dissolution and centrifugation procedures were repeated. […] The supernatant was collected to quantify the amount of compound or substrate using LC-MS. […]
For the substrate assay, the amount of compounds in the vesicle was determined with LC-MS to calculate the transport activity, UR, and inhibition rate using Equations 11–13, which were used to determine whether the compounds were substrates of the transporter. […]

[2] = tested on: UGT1A9/2B7; conditions: 50 μM, 96 h treatment; 100 μM substrate, 30 min
Method: (§1) Cryopreserved human hepatocytes were recovered in a pre-warmed incubation medium, diluted to a viable cell density (∼0.7 × 10^6 cells/mL) using a plating medium, followed by the addition of 100 μL hepatocytes into each well of a collagen I-coated 96-well plate. The cell monolayer was formed after an overnight incubation period at 37°C under 5%CO2. The plating medium was then replaced with an incubation medium for further culture. On the second day, an incubation medium containing different concentrations of either compound, the inducer omeprazole (final concentration of 50 μM), or vehicle (0.1% [v/v] dimethyl sulfoxide [DMSO]). […] At the end of the incubation period, the medium was replaced with a substrate for UGT and MPA. […] Finally, the supernatant was collected after centrifugation at 4,000 rpm for 10 min and analyzed for glucuronide formation using liquid chromatography-mass spectrometry (LC-MS).
(§2) The formation of glucuronide metabolites, as determined with LC-MS, was used to calculate the formation rate linked to enzyme activity according to Equation 1. […]
(§3) The percentage of enzyme activity relative to the NC (%) was determined using Equation 2. […]
(§4) The formation of 4-trifluoromethyl-7-hydroxycoumarin glucuronide and estradiol-3-glucuronide was detected to evaluate the induction of UGT enzyme activity compared with that in the NC group.

[3] = tested on: UGT; test: Human hepatocyte UGT induction study, conversion of MPA to MPAG; type: cell-based; conditions: 50 μM, 96 h treatment
Method: Cryopreserved human hepatocytes were recovered in a pre-warmed incubation medium, diluted to a viable cell density (∼0.7 × 10^6 cells/mL) using a plating medium, followed by the addition of 100 μL hepatocytes into each well of a collagen I-coated 96-well plate. The cell monolayer was formed after an overnight incubation period at 37°C under 5%CO2. The plating medium was then replaced with an incubation medium for further culture. On the second day, an incubation medium containing different concentrations of either compound, the inducer omeprazole (final concentration of 50 μM), or vehicle (0.1% [v/v] dimethyl sulfoxide [DMSO]). […] At the end of the incubation period, the medium was replaced with a substrate for UGT and MPA. Following a further incubation of 15 or 30 min at 37°C under 5% CO2, 100 μL of the reaction medium was transferred to 400 μL of ice-cold methanol containing internal standard (IS) to terminate the reaction. Finally, the supernatant was collected after centrifugation at 4,000 rpm for 10 min and analyzed for glucuronide formation using liquid chromatography-mass spectrometry (LC-MS).
The formation of glucuronide metabolites, as determined with LC-MS, was used to calculate the formation rate linked to enzyme activity according to Equation 1. Formation rate pmol/10^6 cells/min=amount of glucuronide metabolites formation pmol/number of cells 10^6 cells×incubation time min (1)
The percentage of enzyme activity relative to the NC (%) was determined using Equation 2. Relative enzyme activity % of NC=formation rate in the compound−treated group/that in NC×100 (2)

[4] = tested on: UGT1A1/1A3; conditions: 50 μM, 96 h treatment; 100 μM substrate, 30 min
Method: as §1, §2, §3, §4

Sequence of MRP2 (Q92887 whole entry): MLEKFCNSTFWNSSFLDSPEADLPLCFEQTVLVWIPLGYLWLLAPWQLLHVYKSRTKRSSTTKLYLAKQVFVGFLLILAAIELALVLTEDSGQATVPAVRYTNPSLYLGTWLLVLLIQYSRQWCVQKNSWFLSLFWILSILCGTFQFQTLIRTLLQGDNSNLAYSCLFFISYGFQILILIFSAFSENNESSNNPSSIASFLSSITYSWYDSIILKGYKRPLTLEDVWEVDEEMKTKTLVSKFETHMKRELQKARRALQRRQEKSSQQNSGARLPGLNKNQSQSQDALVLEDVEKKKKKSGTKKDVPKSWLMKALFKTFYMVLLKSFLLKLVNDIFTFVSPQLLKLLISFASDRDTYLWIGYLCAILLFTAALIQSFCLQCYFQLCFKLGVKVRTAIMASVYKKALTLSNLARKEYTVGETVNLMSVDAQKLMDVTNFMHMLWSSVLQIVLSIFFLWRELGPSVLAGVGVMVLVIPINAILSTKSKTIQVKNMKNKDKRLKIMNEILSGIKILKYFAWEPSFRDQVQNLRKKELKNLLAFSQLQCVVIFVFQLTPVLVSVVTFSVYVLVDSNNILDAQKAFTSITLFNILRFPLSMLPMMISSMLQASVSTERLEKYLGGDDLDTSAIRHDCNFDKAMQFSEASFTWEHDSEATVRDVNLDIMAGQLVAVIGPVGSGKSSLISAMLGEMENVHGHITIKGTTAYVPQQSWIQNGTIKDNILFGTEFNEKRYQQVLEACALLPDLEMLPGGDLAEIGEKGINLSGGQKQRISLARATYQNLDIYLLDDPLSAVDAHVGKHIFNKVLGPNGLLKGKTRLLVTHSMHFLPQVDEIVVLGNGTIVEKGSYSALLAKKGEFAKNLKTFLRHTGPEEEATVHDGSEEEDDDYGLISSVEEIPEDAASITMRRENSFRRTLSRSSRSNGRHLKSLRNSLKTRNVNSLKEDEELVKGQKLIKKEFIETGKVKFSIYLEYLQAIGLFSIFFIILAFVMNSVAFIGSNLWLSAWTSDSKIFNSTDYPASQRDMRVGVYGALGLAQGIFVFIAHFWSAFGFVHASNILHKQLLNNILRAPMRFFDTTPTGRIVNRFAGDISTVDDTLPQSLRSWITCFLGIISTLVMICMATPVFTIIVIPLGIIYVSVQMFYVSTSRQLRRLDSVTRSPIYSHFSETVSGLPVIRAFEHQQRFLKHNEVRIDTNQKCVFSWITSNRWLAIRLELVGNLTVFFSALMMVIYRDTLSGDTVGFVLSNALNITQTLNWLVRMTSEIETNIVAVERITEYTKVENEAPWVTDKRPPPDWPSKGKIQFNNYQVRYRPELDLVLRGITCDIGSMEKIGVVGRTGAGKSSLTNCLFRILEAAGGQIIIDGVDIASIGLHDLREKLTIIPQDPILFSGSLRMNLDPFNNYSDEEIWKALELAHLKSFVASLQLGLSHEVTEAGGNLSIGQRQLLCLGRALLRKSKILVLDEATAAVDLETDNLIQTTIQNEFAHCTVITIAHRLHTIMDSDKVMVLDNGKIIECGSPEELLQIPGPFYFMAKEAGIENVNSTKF

| Structure (SMILES) | IC50 [1] [µM] | 4-trifluoromethyl-7-hydroxycoumarin glucuronidation activity, % of NC (Mean) [2] | formation of MPAG, % of NC (Mean) [3] | β-estradiol glucuronidation activity, % of NC (Mean) [4] |
| --- | --- | --- | --- | --- |
| CCc1oc2ccccc2c1C(=O)c1cc(Br)c(O)c(Br)c1 [benzbromarone] | 17.6 | – | – | – |
| COc1ccc2[nH]c([S+]([O-])Cc3ncc(C)c(OC)c3C)nc2c1 (stereo not shown) [omeprazole] | – | 145 % of NC | 110 % of NC | 243 % of NC |
